Literature values, collected in PMC5857253 (Bioorganic chemistry, 2018).

Biological target: β-galactosidase (A. oryzae) (Aspergillus oryzae, UniProt Q2UCU3)
Details: methods described by Bartlett et al.

Sequence of β-galactosidase (A. oryzae) (Q2UCU3 19-1005): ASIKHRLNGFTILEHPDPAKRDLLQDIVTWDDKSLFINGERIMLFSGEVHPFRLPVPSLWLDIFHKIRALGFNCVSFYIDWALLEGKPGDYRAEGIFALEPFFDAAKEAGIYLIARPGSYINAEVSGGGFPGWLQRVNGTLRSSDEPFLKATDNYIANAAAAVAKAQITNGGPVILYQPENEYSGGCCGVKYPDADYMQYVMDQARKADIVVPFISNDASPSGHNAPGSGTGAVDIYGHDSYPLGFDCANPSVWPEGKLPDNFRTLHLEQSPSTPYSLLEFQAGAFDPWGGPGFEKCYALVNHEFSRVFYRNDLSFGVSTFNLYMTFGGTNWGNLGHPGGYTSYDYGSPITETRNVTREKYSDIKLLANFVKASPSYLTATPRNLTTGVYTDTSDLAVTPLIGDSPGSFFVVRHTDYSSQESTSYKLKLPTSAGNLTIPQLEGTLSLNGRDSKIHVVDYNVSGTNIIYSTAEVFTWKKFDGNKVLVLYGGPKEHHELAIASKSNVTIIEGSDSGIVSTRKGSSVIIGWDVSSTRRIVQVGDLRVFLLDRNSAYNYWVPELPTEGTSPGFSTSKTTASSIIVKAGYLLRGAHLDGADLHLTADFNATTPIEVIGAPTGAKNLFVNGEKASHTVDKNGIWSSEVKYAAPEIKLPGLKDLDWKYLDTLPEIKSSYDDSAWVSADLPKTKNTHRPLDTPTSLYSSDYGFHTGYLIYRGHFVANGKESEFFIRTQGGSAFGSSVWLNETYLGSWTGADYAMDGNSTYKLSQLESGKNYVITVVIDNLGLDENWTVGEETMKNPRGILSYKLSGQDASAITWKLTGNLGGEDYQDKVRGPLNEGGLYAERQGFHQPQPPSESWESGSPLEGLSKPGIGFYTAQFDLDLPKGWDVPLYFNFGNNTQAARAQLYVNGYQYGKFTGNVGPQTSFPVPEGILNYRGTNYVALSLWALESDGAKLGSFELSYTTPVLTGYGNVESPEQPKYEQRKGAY

In the case of `Cc1ccc(C/N=C2\N[C@H](CO)[C@H](O)[C@H](O)[C@H]2O)cc1` [1a, p-methylbenzyl galactonoamidine], the “classification as putative transition state analog (TSA)” value is given as “characterized as a putative transition state analog”.
